# Results taken from ChEMBL document CHEMBL5729101, “CaMKII inhibitors and uses thereof” (2022).
# pIC50: −log10 of the molar value.
# Assay: In Vitro CaMKIIδ Activity Assay: The inhibition of CaMKII activity was evaluated using a coupled assay measuring ADP released following ATP hydrolysis and phosphor-transfer to the peptide substrate AC3 (KKALHRQETVDAL; SEQ ID NO: 1) (1). A full length, C-terminal His/Gln tagged CaMKIIδ construct was used.
pIC50,IC50,SMILES
> 7.00,–,NCCCOc1cccc(-c2ccnc3[nH]c4ccccc4c23)c1
> 7.00,–,Cc1ccc2c(c1)[nH]c1nccc(-c3cccc(NCCN)c3)c12
–,in the range around 55 µM,C(=C\c1ccnc2[nH]c3ccccc3c12)/CN1CCNCC1
–,in the range around 55 µM,Clc1cncc(-c2ccnc3[nH]c4ccccc4c23)c1
–,in the range around 55 µM,c1ccc2c(c1)[nH]c1nccc(-c3cnc(N4CCNCC4)s3)c12
–,in the range around 55 µM,c1ccc2c(c1)[nH]c1nccc(-c3cnn(C4CCNCC4)c3)c12
> 7.00,–,Cc1ccc2[nH]c3nccc(-c4cccc(NCCN)c4)c3c2c1
–,in the range around 55 µM,NCc1cccc(-c2ccnc3[nH]c4ccccc4c23)c1
–,in the range around 55 µM,Cc1nn(C2CCNCC2)cc1-c1ccnc2[nH]c3ccccc3c12
–,in the range around 55 µM,c1cc(-c2ccnc3[nH]c4ccccc4c23)cc(-n2ccnc2)c1
> 7.00,–,c1cc(-c2ccnc3[nH]c4ccccc4c23)nc(N2CCNCC2)c1
> 7.00,–,COc1ccc2c(c1)[nH]c1nccc(-c3cccc(NCCN)c3)c12
> 7.00,–,NCCOc1cccc(-c2ccnc3[nH]c4ccccc4c23)c1
> 7.00,–,NCCNc1cccc(-c2ccnc3[nH]c4ccccc4c23)c1
> 7.00,–,NCCCNc1cccc(-c2ccnc3[nH]c4ccccc4c23)c1
–,in the range around 55 µM,c1ccc2c(c1)[nH]c1nccc(-n3cc(C4CCNCC4)nn3)c12
> 7.00,–,NCCNc1cccc(-c2ccnc3[nH]c4ccc(Cl)cc4c23)c1
–,in the range around 55 µM,C(=C/c1ccnc2[nH]c3ccccc3c12)/CN1CCNCC1
–,in the range around 55 µM,Clc1cnccc1-c1ccnc2[nH]c3ccccc3c12
